Calls of active or inactive are those of the source. No rule for the calls is given here.
Test system: CCRIS mutagenicity, Ames/micronucleus/aberration tests
Assay: CCRIS mutagenicity studies
[1] = Test System: AMES SALMONELLA TYPHIMURIUM, Strain/Indicator: TA98, Metabolic Activation: NONE, Method: PREINCUBATION
[2] = Test System: AMES SALMONELLA TYPHIMURIUM, Strain/Indicator: TA100, Metabolic Activation: NONE, Method: PREINCUBATION
[3] = Test System: AMES SALMONELLA TYPHIMURIUM, Strain/Indicator: TA1537, Metabolic Activation: NONE, Method: STANDARD PLATE
[4] = Test System: AMES SALMONELLA TYPHIMURIUM, Strain/Indicator: TA98, Metabolic Activation: RAT, LIVER, S-9, AROCLOR 1254, Method: STANDARD PLATE
[5] = Test System: AMES SALMONELLA TYPHIMURIUM, Strain/Indicator: TA100, Metabolic Activation: RAT, LIVER, S-9, AROCLOR 1254, Method: STANDARD PLATE
[6] = Test System: AMES SALMONELLA TYPHIMURIUM, Strain/Indicator: TA1537, Metabolic Activation: RAT, LIVER, S-9, AROCLOR 1254, Method: STANDARD PLATE
[7] = Test System: AMES SALMONELLA TYPHIMURIUM, Strain/Indicator: TA1535, Metabolic Activation: NONE, Method: STANDARD PLATE
[8] = Test System: AMES SALMONELLA TYPHIMURIUM, Strain/Indicator: TA100, Metabolic Activation: RAT, LIVER, S-9, AROCLOR 1254 (10%), Method: PREINCUBATION
[9] = Test System: AMES SALMONELLA TYPHIMURIUM, Strain/Indicator: TA1535, Metabolic Activation: NONE, Method: PREINCUBATION
[10] = Test System: AMES SALMONELLA TYPHIMURIUM, Strain/Indicator: TA1535, Metabolic Activation: RAT, LIVER, S-9, AROCLOR 1254 (10%), Method: PREINCUBATION

In the case of `O=S(=O)(O)Oc1ccc2ccc3c4ccccc4cc4ccc1c2c43`, the mutagenic call [1] is reported as “inactive; negative” and the mutagenic call (Test System: AMES SALMONELLA TYPHIMURIUM, Strain/Indicator: TA98, Metabolic Activation: RAT, LUNG, S-9, Method: PREINCUBATION) is reported as “inactive; negative”.
`COc1ccc(NC(C)=O)cc1N` was tested, and the mutagenic call (End Point: IN VITRO CHROMOSOMAL ABERRATIONS, Test System: CHL CELLS, Metabolic Activation: RAT, LIVER, S-9, SODIUM PHENOBARBITAL AND 5,6-BENZOFLAVONE) was “active; positive (structural changes); authors report equivocal results for ploidy chang”, the mutagenic call [1] was “inactive; negative” and the mutagenic call (Test System: AMES SALMONELLA TYPHIMURIUM, Strain/Indicator: TA98, Metabolic Activation: RAT, LIVER, S-9, PHENOBARBITAL AND BETA-NAPHTHOFLAVONE, Method: PREINCUBATION) was “active; positive”. For the same molecule, the mutagenic call [2] was “inactive; negative” and the mutagenic call (Test System: AMES SALMONELLA TYPHIMURIUM, Strain/Indicator: TA100, Metabolic Activation: RAT, LIVER, S-9, PHENOBARBITAL AND BETA-NAPHTHOFLAVONE, Method: PREINCUBATION) was “active; positive”.
`Cc1ccc(N)cc1N=Nc1cc(N)ccc1C` was tested, and the mutagenic call (Test System: AMES SALMONELLA TYPHIMURIUM, Strain/Indicator: TA98, Metabolic Activation: NONE, Method: SUSPENSION/PLATE) was “inactive; negative”, the mutagenic call (Test System: AMES SALMONELLA TYPHIMURIUM, Strain/Indicator: TA98, Metabolic Activation: RAT, LIVER, S-9, PHENOBARBITAL AND 5,6-BENZOFLAVONE, Method: SUSPENSION/PLATE) was “active; positive” and the mutagenic call (Test System: AMES SALMONELLA TYPHIMURIUM, Strain/Indicator: TA100, Metabolic Activation: NONE, Method: SUSPENSION/PLATE) was “inactive; negative”. The mutagenic call (Test System: AMES SALMONELLA TYPHIMURIUM, Strain/Indicator: TA100, Metabolic Activation: RAT, LIVER, S-9, PHENOBARBITAL AND 5,6-BENZOFLAVONE, Method: SUSPENSION/PLATE) was “active; positive”.
With `CS(=O)(=O)Nc1ccc(Nc2c3ccccc3nc3cc(N=[N+]=[N-])ccc23)cc1` the mutagenic call [3] was “active; positive”.
For `Oc1ccc2ccc3c4c(cc5ccc1c2c53)[C@@H](O)[C@H](O)C=C4`, the mutagenic call (Test System: AMES SALMONELLA TYPHIMURIUM, Strain/Indicator: TA97, Metabolic Activation: RAT, LIVER, S-9, AROCLOR 1254, Method: STANDARD PLATE) was “active; positive”, the mutagenic call [4] was “active; positive” and the mutagenic call [5] was “active; positive”. The mutagenic call [6] was “active; positive” and the mutagenic call (Test System: CHINESE HAMSTER V-79, Strain/Indicator: V-79/6-THIOGUANINE, Metabolic Activation: RAT, LIVER, S-9, AROCLOR 1254) was “active; positive”.
With `CCNC(=O)N(C=O)CCN(C)C` the mutagenic call [7] was “active; positive”.
With `CCC(=C(CC)c1ccc(O)cc1)c1ccc(O)cc1` the mutagenic call (End Point: IN VITRO MICRONUCLEUS, Test System: CHL/IU CELLS, Metabolic Activation: NONE) was “active; positive”.
With `NC(=O)[C@@H]1CCCN1C(=O)[C@H](Cc1cnc[nH]1)NC(=O)[C@@H]1CCC(=O)N1` the mutagenic call (Test System: AMES SALMONELLA TYPHIMURIUM, Strain/Indicator: TA98, Metabolic Activation: NONE, Method: STANDARD PLATE) was “inactive; negative”, the mutagenic call [4] was “inactive; negative” and the mutagenic call (Test System: AMES SALMONELLA TYPHIMURIUM, Strain/Indicator: TA100, Metabolic Activation: NONE, Method: STANDARD PLATE) was “inactive; negative”. The mutagenic call [5] was “inactive; negative”, the mutagenic call [7] was “inactive; negative” and the mutagenic call (Test System: AMES SALMONELLA TYPHIMURIUM, Strain/Indicator: TA1535, Metabolic Activation: RAT, LIVER, S-9, AROCLOR 1254, Method: STANDARD PLATE) was “inactive; negative”. The mutagenic call [3] was “inactive; negative” and the mutagenic call [6] was “inactive; negative”.
For `Cc1ccccc1C#N`, the mutagenic call (Test System: AMES SALMONELLA TYPHIMURIUM, Strain/Indicator: TA97, Metabolic Activation: HAMSTER, LIVER, S-9, AROCLOR 1254 (10 OR 30%), Method: PREINCUBATION) was “inactive; negative”, the mutagenic call (Test System: AMES SALMONELLA TYPHIMURIUM, Strain/Indicator: TA97, Metabolic Activation: NONE, Method: PREINCUBATION) was “inactive; negative” and the mutagenic call (Test System: AMES SALMONELLA TYPHIMURIUM, Strain/Indicator: TA97, Metabolic Activation: RAT, LIVER, S-9, AROCLOR 1254 (10%), Method: PREINCUBATION) was “inactive; negative”. The mutagenic call (Test System: AMES SALMONELLA TYPHIMURIUM, Strain/Indicator: TA97, Metabolic Activation: RAT, LIVER, S-9, AROCLOR 1254 (30%), Method: PREINCUBATION) was “inactive; negative”, the mutagenic call (Test System: AMES SALMONELLA TYPHIMURIUM, Strain/Indicator: TA98, Metabolic Activation: HAMSTER, LIVER, S-9, AROCLOR 1254 (10 OR 30%), Method: PREINCUBATION) was “inactive; negative” and the mutagenic call [1] was “inactive; negative”. The mutagenic call (Test System: AMES SALMONELLA TYPHIMURIUM, Strain/Indicator: TA98, Metabolic Activation: RAT, LIVER, S-9, AROCLOR 1254 (10 OR 30%), Method: PREINCUBATION) was “inactive; negative”, the mutagenic call (Test System: AMES SALMONELLA TYPHIMURIUM, Strain/Indicator: TA100, Metabolic Activation: HAMSTER, LIVER, S-9, AROCLOR 1254 (10 OR 30%), Method: PREINCUBATION) was “inactive; negative” and the mutagenic call [2] was “inactive; negative”. The mutagenic call [8] was “inactive; negative”, the mutagenic call (Test System: AMES SALMONELLA TYPHIMURIUM, Strain/Indicator: TA100, Metabolic Activation: RAT, LIVER, S-9, AROCLOR 1254 (30%), Method: PREINCUBATION) was “inactive; negative” and the mutagenic call (Test System: AMES SALMONELLA TYPHIMURIUM, Strain/Indicator: TA1535, Metabolic Activation: HAMSTER, LIVER, S-9, AROCLOR 1254 (10 OR 30%), Method: PREINCUBATION) was “inactive; negative”. For the same molecule, the mutagenic call [9] was “inactive; negative”, the mutagenic call [10] was “inactive; negative” and the mutagenic call (Test System: AMES SALMONELLA TYPHIMURIUM, Strain/Indicator: TA1535, Metabolic Activation: RAT, LIVER, S-9, AROCLOR 1254 (30%), Method: PREINCUBATION) was “inactive; negative”. The mutagenic call (Test System: MOUSE LYMPHOMA, Strain/Indicator: L5178Y (TK+/TK-), Metabolic Activation: RAT, LIVER, S-9, AROCLOR 1254, Method: SUSPENSION/PLATE) was “active; positive. reevaluation of results: positive” and the mutagenic call (Test System: Mouse lymphoma, Strain/Indicator: L5178Y (tk+/tk-), Metabolic Activation: None, Method: Suspension/plate) was “inactive; negative”.
For `NC(Cc1ccc(F)cc1)C(=O)O` (stereo unspecified), the mutagenic call (Test System: AMES SALMONELLA TYPHIMURIUM, Strain/Indicator: TA98, Metabolic Activation: HAMSTER, LIVER, S-9, AROCLOR 1254 (10%), Method: PREINCUBATION) was “inactive; negative”, the mutagenic call [1] was “inactive; negative” and the mutagenic call (Test System: AMES SALMONELLA TYPHIMURIUM, Strain/Indicator: TA98, Metabolic Activation: RAT, LIVER, S-9, AROCLOR 1254 (10%), Method: PREINCUBATION) was “inactive; negative”. For the same molecule, the mutagenic call (Test System: AMES SALMONELLA TYPHIMURIUM, Strain/Indicator: TA100, Metabolic Activation: HAMSTER, LIVER, S-9, AROCLOR 1254 (10%), Method: PREINCUBATION) was “inactive; negative”, the mutagenic call [2] was “inactive; negative” and the mutagenic call [8] was “inactive; negative”. The mutagenic call (Test System: AMES SALMONELLA TYPHIMURIUM, Strain/Indicator: TA1535, Metabolic Activation: HAMSTER, LIVER, S-9, AROCLOR 1254 (10%), Method: PREINCUBATION) was “inactive; negative”, the mutagenic call [9] was “inactive; negative” and the mutagenic call [10] was “inactive; negative”. The mutagenic call (Test System: AMES SALMONELLA TYPHIMURIUM, Strain/Indicator: TA1537, Metabolic Activation: HAMSTER, LIVER, S-9, AROCLOR 1254 (10%), Method: PREINCUBATION) was “inactive; negative”, the mutagenic call (Test System: AMES SALMONELLA TYPHIMURIUM, Strain/Indicator: TA1537, Metabolic Activation: NONE, Method: PREINCUBATION) was “inactive; negative” and the mutagenic call (Test System: AMES SALMONELLA TYPHIMURIUM, Strain/Indicator: TA1537, Metabolic Activation: RAT, LIVER, S-9, AROCLOR 1254 (10%), Method: PREINCUBATION) was “inactive; negative”.
